Results taken from PubChem BioAssay AID330 (DTP/NCI, 2004).
“And” between values parts separate entries of the source, which are not always exact repeats. Identical values can stand only once. Inconclusive results and toxic doses are left out.

Tested on: P388 leukemia ip, CD2F1 mice, survival T/C
Experiment: NCI In Vivo Anticancer Drug Screen. Data for tumor model P388 Leukemia (intraperitoneal) in CD2F1 (CDF1) mice
Settings: endpoint: median survival time, higher = longer survival
Procedure, shortened: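 Mice carrying the transplanted tumor received test compound or vehicle. Survival was recorded in each group, and the value is the treated-group measurement divided by that of the vehicle-treated control group.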

[1] = dose: 50.0 mg/kg/injection, schedule: Q01DX005 (ip), vehicle: Klucel (hydroxypropylcellulose) (HPC)
[2] = dose: 30.0 mg/kg/injection, schedule: Q01DX005 (ip), vehicle: saline
[3] = dose: 60.0 mg/kg/injection, schedule: Q01DX005 (ip), vehicle: saline
[4] = dose: 120.0 mg/kg/injection, schedule: Q01DX005 (ip), vehicle: saline
[5] = dose: 50.0 mg/kg/injection, schedule: Q01DX009 (ip), vehicle: saline with Tween-80
[6] = dose: 100.0 mg/kg/injection, schedule: Q01DX009 (ip), vehicle: saline with Tween-80
[7] = dose: 25.0 mg/kg/injection, schedule: Q01DX009 (ip), vehicle: Klucel (hydroxypropylcellulose) (HPC)
[8] = dose: 50.0 mg/kg/injection, schedule: Q01DX009 (ip), vehicle: Klucel (hydroxypropylcellulose) (HPC)
[9] = dose: 100.0 mg/kg/injection, schedule: Q01DX009 (ip), vehicle: Klucel (hydroxypropylcellulose) (HPC)
[10] = dose: 200.0 mg/kg/injection, schedule: Q01DX009 (ip), vehicle: Klucel (hydroxypropylcellulose) (HPC)

SMILES: CC(C)C1CC(O)C(C)C(CN2CCCCC2)C1 (stereo unspecified)
- T/C [1]: 105 % of control
- T/C (dose: 100.0 mg/kg/injection, schedule: Q01DX005 (ip), vehicle: Klucel (hydroxypropylcellulose) (HPC)): 104 % of control

SMILES: CC1COC2(CC1OC(=O)/C=C/c1ccccc1)OC1CC(C(=O)OC3OC(C)C(O)C(O)C3OC3OC(C)C(O)C(O)C3O)CCC1C21CO1 (stereo unspecified)
- T/C (dose: 1.88 mg/kg/injection, schedule: Q01DX005 (ip), vehicle: saline + alcohol): 106 % of control
- T/C (dose: 3.75 mg/kg/injection, schedule: Q01DX005 (ip), vehicle: saline + alcohol): 106 % of control
- T/C (dose: 7.5 mg/kg/injection, schedule: Q01DX005 (ip), vehicle: saline + alcohol): 111 % of control and 118 % of control
- T/C (dose: 15.0 mg/kg/injection, schedule: Q01DX005 (ip), vehicle: saline + alcohol): 118 % of control
- T/C (dose: 60.0 mg/kg/injection, schedule: Q01DX005 (ip), vehicle: saline + alcohol): 153 % of control

SMILES: COC(=O)CNP(=O)(NCC(=O)OC)N(CCCl)CCCl
- T/C [2]: 102 % of control
- T/C [3]: 115 % of control
- T/C [4]: 153 % of control and 161 % of control
- T/C (dose: 240.0 mg/kg/injection, schedule: Q01DX005 (ip), vehicle: saline): 161 % of control and 238 % of control

SMILES: Cc1c(C(N)=O)no[n+]1[O-]
- T/C [2]: 100 % of control
- T/C [3]: 99 % of control and 100 % of control
- T/C [4]: 99 % of control and 100 % of control

SMILES: c1ccc(N=C2c3ccccc3NC2(c2ccccc2)c2ccccc2)cc1
- T/C [5]: 101 % of control
- T/C [6]: 93 % of control

SMILES: C/C=C/C(=O)OCC1CCN(C)C1 (stereo unspecified)
- T/C (dose: 12.5 mg/kg/injection, schedule: Q01DX009 (ip), vehicle: Klucel (hydroxypropylcellulose) (HPC)): 95 % of control
- T/C [7]: 94 % of control
- T/C [8]: 96 % of control
- T/C [9]: 94 % of control
- T/C [10]: 89 % of control

SMILES: S=c1n(-c2ccc(Cl)cc2)c2nc3ccccc3nc(/c2=N\Nc2cc(Cl)ccc2Cl)n1-c1ccccn1
- T/C (dose: 50.0 mg/kg/injection, schedule: Q01DX005 (ip), vehicle: saline with Tween-80): 103 % of control
- T/C (dose: 100.0 mg/kg/injection, schedule: Q01DX005 (ip), vehicle: saline with Tween-80): 100 % of control

SMILES: COC(=O)NC(=O)CNc1ncc([N+](=O)[O-])s1
- T/C (dose: 100.0 mg/kg/injection, schedule: Q01DX001 (ip), vehicle: saline): 107 % of control
- T/C (dose: 200.0 mg/kg/injection, schedule: Q01DX001 (ip), vehicle: saline): 107 % of control
- T/C (dose: 400.0 mg/kg/injection, schedule: Q01DX001 (ip), vehicle: saline): 88 % of control

SMILES: c1ccc2c(c1)CC1ON3CCc4ccccc4C3C21 (stereo unspecified)
- T/C [5]: 97 % of control
- T/C [6]: 94 % of control
- T/C (dose: 200.0 mg/kg/injection, schedule: Q01DX009 (ip), vehicle: saline with Tween-80): 92 % of control

SMILES: [CH3][Sn]([CH3])([S]c1nc(O)cc(=O)[nH]1)[S]c1nc(O)cc(=O)[nH]1
- T/C (dose: 12.5 mg/kg/injection, schedule: Q01DX005 (ip), vehicle: Klucel (hydroxypropylcellulose) (HPC)): 105 % of control and 108 % of control
- T/C (dose: 25.0 mg/kg/injection, schedule: Q01DX005 (ip), vehicle: Klucel (hydroxypropylcellulose) (HPC)): 96 % of control
- T/C [1]: 117 % of control and 88 % of control and 89 % of control

SMILES: N#CC[N+]1(Cc2ccccn2)CCCC1
- T/C [3]: 101 % of control
- T/C [4]: 108 % of control

SMILES: CCOC(=O)c1ccc(N(CCC2CO2)S(=O)(=O)c2ccc(C)cc2)cc1 (stereo unspecified)
- T/C [7]: 94 % of control
- T/C [8]: 93 % of control
- T/C [9]: 98 % of control
- T/C [10]: 94 % of control

SMILES: O=[N+]([O-])c1ccc2c(c1)C1CN(Cc3ccccc31)C2 (stereo unspecified)
- T/C (dose: 100.0 mg/kg/injection, schedule: Q01DX001 (ip), vehicle: saline with Tween-80): 90 % of control
- T/C (dose: 200.0 mg/kg/injection, schedule: Q01DX001 (ip), vehicle: saline with Tween-80): 89 % of control
- T/C (dose: 400.0 mg/kg/injection, schedule: Q01DX001 (ip), vehicle: saline with Tween-80): 97 % of control
